Test results published in patent US7977387B2, “Aminobenzophenone compounds” (Leo Pharma A/S, priority 2003, dated 2011).

Key:
IL-1β = experiment: Inhibition of IL-1β secretion in LPS stimulated peripheral blood mononuclear cells; type: cell-based; settings: PBMC; LPS stimulated human peripheral blood mononuclear cells, 18 hours, ELISA; read-out: The median inhibition concentration (IC50, nM) of IL-1β
Method: (§1) To study the effect of compounds of the present invention in vitro, the inhibition of IL-1β and TNF-α secretion was determined using the following procedure:
(§2) Cytokine production was measured in the media from lipopolysaccharide (LPS) stimulated peripheral blood mononuclear cells. The mononuclear cells were isolated from human peripheral blood by Lymphoprep® (Nycomed, Norway) fractionation and suspended in RPMI 1640 (growth medium) with foetal calf serum (FCS, 2%), at a concentration of 5×10^5 cells/ml. The cells were incubated in 24-well tissue culture plates in 1 ml aliquots. Test compounds were dissolved in dimethylsulfoxide (DMSO, 10 mM) and were diluted with the medium. Compounds were added to the cells for 30 minutes, then LPS ([…] final concentration) was added. The plates were incubated for 18 hours, and the concentration of IL-β and TNF-α in the medium was determined by enzyme-linked immunosorbent assays. The median inhibitory concentrations (IC50) of the compounds were calculated.

TNF-α = experiment: Inhibition of TNF-α secretion in LPS stimulated peripheral blood mononuclear cells; type: cell-based; settings: PBMC; LPS stimulated human peripheral blood mononuclear cells, 18 hours, ELISA; read-out: The median inhibition concentration (IC50, nM) of TNF-α
Method: as §1, §2

[1] = test system: LPS induced TNF-α response; experiment: In vivo screening model of LPS induced TNF-α response in mice; settings: Mus musculus, mice (C3H/HeN), dosed 1 hour prior to LPS, plasma TNF-α 80-90 minutes after LPS, vs LPS treated control group, read-out: In vivo inhibition of LPS induced TNF-α production (in %)
Method: In Vivo Screening Model of LPS Induced TNF-α Response in Mice
To study the effect of compounds of the present invention in vivo, an in vivo screening model of LPS induced TNF-α response in mice was set up as follows: Groups of 6 mice (C3H/HeN, female, about 8 weeks (20 g), Bomholtgaard) were dosed with test compounds in suspension vehicle 1 hour prior to LPS administration (LPS from E. coli 055:B5, L-4005, Sigma). At time 0, the mice were dosed ip with 1.0 mg LPS/kg. After anesthetization with Hypnorm/Dormicum, the mice were bled from the periorbital venous plexus 80-90 minutes after LPS administration. The blood samples were sampled in EDTA stabilised tubes and centrifuged at 4000 rpm for 10 minutes at 4° C. The plasma level of TNF-α was analysed by ELISA. Compound 156 of WO 98/32730 was used as reference compound. The plasma level of TNF-α was determined using a sandwich ELISA. Microtiter plates were coated with a monoclonal antibody against mouse TNF-α, washed and blocked with a casein buffer. Samples of mouse TNF-α recombinant standards were added to the wells of the microtiter plates and incubated. All standards were tested in triplicate, all plasma samples in single. After sample and standard incubation, the plates were washed and incubated with biotinylated polyclonal secondary antibody against mouse TNF-α and washed. Enzyme conjugate was added to all wells and incubated. Substrate was added and the enzyme/substrate reaction stopped after 15 minutes at room temperature with 1M H2SO4. The colour development (OD) was measured at 450 nm on an ELISA reader and the background OD at 620 nm was subtracted. […] The results of the tested compounds are indicated as a percentage inhibition compared to an LPS treated control group. Compounds were tested at 10 mg/kg. The Mann-Whitney test was used to compare drug treated groups to the LPS treated control group (p<0.05).

SMILES | IC50 (IL-1β) | IC50 (TNF-α) | inhibition at 10 mg/kg [1]
Cc1cc(Br)ccc1Nc1ccc(C(=O)c2cc(C(=O)NCCO)ccc2C)c(Cl)c1 [Compound 114, 3-[4-(4-Bromo-2-methylphenylamino)-2-chlorobenzoyl]-N-(2-hydroxyethyl)-4-methylbenzamide] | 2.5 nM | 0.4 nM | 72%
COCCNC(=O)c1ccc(C)c(C(=O)c2ccc(Nc3ccccc3N)cc2Cl)c1 [Compound 116, 3-[4-(2-Aminophenylamino)-2-chlorobenzoyl]-N-(2-methoxyethyl)-4-methylbenzamide] | 1 nM | 1 nM | 95%
CCNC(=O)c1ccc(C)c(C(=O)c2ccc(Nc3ccccc3N)cc2Cl)c1 [Compound 117, 3-[4-(2-Aminophenylamino)-2-chlorobenzoyl]-N-ethyl-4-methylbenzamide] | 4 nM | 1 nM | 71%
CCOC(=O)CNC(=O)c1ccc(C)c(C(=O)c2ccc(Nc3ccc(Cl)cc3F)cc2Cl)c1 [Compound 123, {3-[2-Chloro-4-(4-chloro-2-fluoro-phenylamino)-benzoyl]-4-methyl-benzoylamino}acetic acid ethyl ester] | 0.5 nM | 0.3 nM | 47%
CCNC(=O)c1ccc(C)c(C(=O)c2ccc(Nc3ccc(Cl)cc3F)cc2Cl)c1 [Compound 126, 3-[2-Chloro-4-(4-chloro-2-fluoro-phenylamino)-benzoyl]-N-ethyl-4-methyl-benzamide] | 2.8 nM | 0.6 nM | 79%
Cc1ccc(C(=O)NCC(C)C)cc1C(=O)c1ccc(Nc2ccc(Cl)cc2F)cc1Cl [Compound 129, 3-[2-Chloro-4-(4-chloro-2-fluoro-phenylamino)-benzoyl]-N-isobutyl-4-methyl-benzamide] | 2.5 nM | 1.3 nM | 73%
COCCCNC(=O)c1ccc(C)c(C(=O)c2ccc(Nc3ccc(Cl)cc3F)cc2Cl)c1 [Compound 131, 3-[2-Chloro-4-(4-chloro-2-fluoro-phenylamino)-benzoyl]-N-(3-methoxy-propyl)-4-methyl-benzamide] | 3.2 nM | 1.3 nM | 70%

The next lines start with results.

IC50 (IL-1β) | IC50 (TNF-α) | SMILES | inhibition at 10 mg/kg [1]
1.3 nM | 0.3 nM | Cc1ccc(C(=O)NCCO)cc1C(=O)c1ccc(Nc2ccc(F)cc2F)cc1Cl [Compound 115, 3-[2-Chloro-4-(2,4-difluorophenylamino)benzoyl]-N-(2-hydroxyethyl)-4-methylbenzamide] | 96%
2.7 nM | 2 nM | Cc1ccc(C(=O)NCCO)cc1C(=O)c1ccc(Nc2ccc(Cl)cc2F)cc1Cl [Compound 120, 3-[2-Chloro-4-(4-chloro-2-fluoro-phenylamino)-benzoyl]-N-(2-hydroxy-ethyl)-4-methyl-benzamide] | 86%
1.4 nM | 1 nM | COc1ccc(C(=O)NCCO)cc1C(=O)c1ccc(Nc2ccc(F)cc2F)cc1Cl [Compound 140, 3-[2-Chloro-4-(2,4-difluoro-phenylamino)-benzoyl]-N-(2-hydroxy-ethyl)-4-methoxy-benzamide] | 76%
0.9 nM | 0.6 nM | COc1ccc(C(=O)NCC(F)F)cc1C(=O)c1ccc(Nc2ccc(F)cc2F)cc1Cl [Compound 141, 3-[2-Chloro-4-(2,4-difluoro-phenylamino)-benzoyl]-N-(2,2-difluoro-ethyl)-4-methoxy-benzamide] | 46%
1.3 nM | 0.3 nM | Cc1ccc(C(=O)NCC(N)=O)cc1C(=O)c1ccc(Nc2ccc(F)cc2F)cc1Cl [Compound 145, N-Carbamoylmethyl-3-[2-chloro-4-(2,4-difluoro-phenylamino)-benzoyl]-4-methyl-benzamide] | 94%
2.5 nM | 0.8 nM | Cc1ccc(C(=O)NCCF)cc1C(=O)c1ccc(Nc2ccc(F)cc2F)cc1Cl [Compound 147, 3-[2-Chloro-4-(2,4-difluoro-phenylamino)-benzoyl]-N-(2-fluoro-ethyl)-4-methyl-benzamide] | 89%
